This note sets out measurements from PubChem BioAssay AID1996.

Converted amounts (≈) assume the structure as drawn. Where only a bound is given, the exact number is not on record here.

The conditions of the data set: buffer; pH 7.4; 200.0 µM.
By kinetic solubility is commonly meant solubility judged after dilution from a stock solution rather than from solid. The molecule `O=C(Nc1ccccc1N1CCCC1)c1ccccc1F` yielded a kinetic solubility of 19.8 µg/mL (≈ 69.6 µM).

On to `O=C(c1cccc([N+](=O)[O-])c1)N1CCN(c2ncccn2)CC1`, for which the solubility (kinetic) is more than 47 µg/mL.

Regarding `O=C(Nc1ccccc1)Nc1ccc2ccccc2c1`, the solubility (kinetic) is less than 0.3 µg/mL.

As for `CN(C)c1ccc(C(=O)N(Cc2ccccc2)Cc2ccccc2)cc1`, the solubility (kinetic) is less than 0.4 µg/mL.

`COc1ccc(S(=O)(=O)N2CCOCC2)cc1NC(=O)CN1CCCc2ccccc21` showed a solubility (kinetic) of 2.9 µg/mL (≈ 6.51 µM).

With `CC(COc1ccccc1)N(CCCl)Cc1ccccc1.Cl` (configuration not stated), the solubility (kinetic) stood at 45.8 µg/mL.

The molecule `O=C(COC(=O)c1cnc(Cl)c(Cl)c1)NC1CC1` showed a solubility (kinetic) of more than 43.4 µg/mL.

In the case of `CCc1ccccc1NC(=O)CCC(=O)c1cccs1`, the solubility (kinetic) stood at 32.1 µg/mL (≈ 112 µM).

Molecule `CCc1cccc(C)c1NS(=O)(=O)Cc1ccccc1` had a solubility (kinetic) of more than 43.4 µg/mL.

`CCOc1ccccc1N1CCN(C(=O)c2cccs2)CC1` gave a solubility (kinetic) of 45.7 µg/mL (≈ 144 µM).

For the molecule `Cc1ccc(CN2C(=O)C(C)Oc3ccccc32)cc1` (configuration not stated), the kinetic solubility was found to be 4.7 µg/mL (≈ 17.6 µM).

In the case of `CCOc1ccc2oc(C(=O)Nc3nccs3)c(C)c2c1`, the solubility (kinetic) stood at 2.2 µg/mL (≈ 7.28 µM). This solubility kinetic is about 2.1-fold lower than that of the molecule before.

Regarding `CC1Cc2cc(/C=C3/SC(=S)NC3=O)ccc2O1` (configuration not stated), the solubility (kinetic) turned out to be 9.3 µg/mL (≈ 33.5 µM).

With `Cc1cccc(OCC(=O)Nc2ccc3c(c2)C(=O)NC3=O)c1`, the kinetic solubility worked out at 1.3 µg/mL (≈ 4.19 µM).

As for `N#C/C(=C\c1ccncc1)c1nc2ccccc2o1`, the solubility (kinetic) amounted to 12.9 µg/mL (≈ 52.2 µM).

`COC(=O)c1ccc2c(c1)NC(=O)c1ccccc1S2` came in with a kinetic solubility of 3.9 µg/mL (≈ 13.7 µM).

`Cc1cc(Cl)n2c(nc3cc(F)c(F)cc32)c1C#N` showed a kinetic solubility of 4.7 µg/mL (≈ 16.9 µM).

Turning to `CCC[N+](CC#CCO)(CC#Cc1ccccc1)CCC.[Br-]`, the kinetic solubility was more than 54.6 µg/mL.

As for `O=C1NC(c2ccc(Cl)c([N+](=O)[O-])c2)Nc2ccccc21` (configuration not stated), the kinetic solubility was found to be 7.7 µg/mL (≈ 25.4 µM).

`Cn1c(O)c(C=Nc2ccccc2)c(=O)n(C)c1=O` yielded a kinetic solubility of 24 µg/mL (≈ 92.6 µM).

In turn, `Fc1ccccc1OCCCn1ccnc1` had a kinetic solubility of more than 33 µg/mL.

Turning to `C=CCNC(=S)Nc1cc(C)ccn1`, the solubility (kinetic) is more than 31.1 µg/mL.

In the case of `CN(C(=O)c1ccc(N2CCCCC2)c([N+](=O)[O-])c1)C1CCS(=O)(=O)C1` (configuration not stated), the kinetic solubility was more than 57.2 µg/mL.

For `Cc1ccc(OCC(=O)NCCCNC(=O)c2ccncc2)cc1`, the solubility (kinetic) was more than 49.1 µg/mL.

Molecule `Cn1c(-c2ccccc2)cc2ccccc21` gave a kinetic solubility of 0.6 µg/mL (≈ 2.89 µM).

Take `N#Cc1ccc(-c2nc3ccccc3c(=O)n2O)cc1`: the solubility (kinetic) is more than 39.5 µg/mL.

`CC(NC(=O)NC(=O)c1ccc(Cl)cc1Cl)C1CC1` (configuration not stated) came in with a kinetic solubility of 7.2 µg/mL (≈ 23.9 µM).

`Fc1ccc(C2c3cccn3CCN2C(=S)Nc2cccc(F)c2)cc1` (configuration not stated): the kinetic solubility was found to be 5.1 µg/mL (≈ 13.8 µM). The solubility kinetic values of the last two molecules are within 1.5-fold of each other.

On to `CN(Cc1ccccc1)S(=O)(=O)c1cccc2nsnc12`, for which the kinetic solubility was determined as 3 µg/mL (≈ 9.39 µM).

`O=S(=O)(Nc1ccc(S(=O)(=O)N2CCCC2)cc1)c1ccc(F)cc1F` gave a kinetic solubility of more than 60.4 µg/mL.

`NC(=O)COC(=O)c1cc(-c2ccco2)nc2ccccc12`: the kinetic solubility was 39.9 µg/mL (≈ 135 µM).

In the case of `COc1cnc(-c2cccc(C(F)(F)F)c2)nc1OC`, the kinetic solubility is less than 0.3 µg/mL.

`Cc1ccc(C(=O)ONC(=O)c2ccc(Cl)cc2)cc1[N+](=O)[O-]` displayed a solubility (kinetic) of 46.8 µg/mL (≈ 140 µM).

`Nc1nc2ccccc2n1CCOc1ccc(Cl)cc1` gave a kinetic solubility of 25.8 µg/mL (≈ 89.7 µM). Against the preceding molecule, the solubility kinetic is about 1.8-fold lower.

For `Cc1nc2ccccc2c2c1CC(C)S2` (configuration not stated), the kinetic solubility was determined as 24.5 µg/mL (≈ 114 µM).

Consider `Cc1cnc(NC(=O)C2CC=CCC2)s1` (configuration not stated), for which the solubility (kinetic) was 23.9 µg/mL (≈ 108 µM).

The molecule `CCOC(=O)NC(=O)/C(C#N)=C/c1ccc(N(C)C)cc1` displayed a kinetic solubility of 15.1 µg/mL (≈ 52.6 µM).

Take `COc1ccc(Cn2c(=O)cc(C)[nH]c2=S)cc1`: the kinetic solubility is 20.2 µg/mL (≈ 77 µM).

`CCNC(=O)Nc1cc(OC)c(OC)cc1C(=O)O` returned a kinetic solubility of more than 40.2 µg/mL.

`CC(=O)Nc1ccc(C(=O)Nc2cc(C)on2)cc1` returned a kinetic solubility of more than 38.9 µg/mL.

Consider `CC(=O)c1c(C)[nH]c(=S)c(C#N)c1-c1ccc(F)cc1`, for which the kinetic solubility is more than 42.9 µg/mL.

In the case of `CN1C(=O)c2ccccc2N(C)C1c1ccccc1Cl` (configuration not stated), the kinetic solubility is more than 43 µg/mL.

The molecule `NS(=O)(=O)c1ccc(NC(=O)CN2CCCc3ccccc32)cc1` showed a solubility (kinetic) of 19.1 µg/mL (≈ 55.3 µM).

In turn, `CCCCOc1ccc(CN2CCSCC2)cc1` showed a kinetic solubility of 14.1 µg/mL (≈ 53.1 µM).

The molecule `COC(=O)c1ccc(NC(=O)Nc2ccccc2C)cc1` returned a solubility (kinetic) of 4.3 µg/mL (≈ 15.1 µM). Compared with the last molecule, the solubility kinetic is about 3.3-fold lower.

`O=C(c1ccc2nc[nH]c2c1)N1CCN(c2cccc(Cl)c2)CC1` showed a kinetic solubility of 42.7 µg/mL (≈ 125 µM).

`COc1ccc(-n2c(C)cc(-c3cn4cccc(C)c4n3)c2C)cc1` returned a solubility (kinetic) of 11.9 µg/mL (≈ 35.9 µM).

As to `COc1ccc(Nc2nc(N)c(C(=O)c3ccc(F)cc3)s2)cc1`, the solubility (kinetic) is 5.2 µg/mL (≈ 15.1 µM).

Molecule `CN1CCN(C(=O)c2ccc(Oc3ccc([N+](=O)[O-])cc3)cc2)CC1` displayed a kinetic solubility of more than 51.2 µg/mL.

`OCC1(Cc2ccccc2)CCN(CCCC2CCCC2)CC1`: the kinetic solubility is more than 47.3 µg/mL.

`Cc1cccc(NC(=O)CCCN2C(=S)NC(C)(C)CC2C)c1C` (configuration not stated) showed a kinetic solubility of more than 52.1 µg/mL.

In turn, `CCSC(=O)NC1CCCCC1` registered a solubility (kinetic) of 14.4 µg/mL (≈ 76.9 µM).
